Data published in US9663486B2, “Selectively substituted quinoline compounds” (EISAI R&D MANAGEMENT CO., LTD., priority 2013, dated 2017).

Key:
Human TLR7/8 = assay: Human PBMC cell-based assay, TLR7/8 (RNA-Ig), cytokine ELISA; conditions: PBMC assay data summary; ligand and analyte not given; read-out: Human PBMCs IC50
Procedure: Human peripheral blood mononuclear cells (PBMC) were isolated from freshly-drawn heparinized (10 USP units/ml, Hospira, Lakeforest, Ill.) healthy donor whole blood by density gradient (Histopaque® 1077, Sigma, Inc., St. Louis, Mo.). Briefly, 25 ml blood was diluted with 15 ml PBS (without Ca^2+, Mg^2+) in a 50 ml conical tube, and 12 ml Histopaque was underlaid using a spinal needle. Tubes were centrifuged for 45 minutes at 1200 rpm (350×g), and PBMC were collected from the buffy coat. Cells were then washed twice in PBS, and red blood cells were lysed by suspension in 5 ml ammonium chloride solution (1× Red Blood Cell Lysis Buffer, eBioscience) for 5 minutes at room temperature. After a final wash in PBS, PBMC were resuspended at a final concentration of 2×10^6/ml in RPMI-1640 media with L-glutamine (Invitrogen) and supplemented with 25 mM HEPES (Mediatech, Inc, Manassas Va.), 10% fetal bovine serum (HyClone, Logan, Utah), and Penicillin-Streptomycin-Glutamine (Mediatech) and plated at 100 ul/well (2×10^5 cells/well) in tissue culture treated 96-well plates (Falcon).
Antagonist compounds solubilized and serial diluted in 100% DMSO were added in triplicate to cells to yield a final concentration of 0.1% DMSO (v/v). Hydroxychloroquine (Acros Organics) solubilized and serial diluted in PBS was added in triplicate to cells. PBMC were incubated with antagonist compounds or HCQ for 30 minutes at 37° C., 5% CO2 before adding various TLR agonist reagents in 100 ul complete media per well as follows (final concentrations indicated): R848 (Resiquimod; GLSynthesis, Worcester, Mass.) at 1 uM for TLR7 and TLR8, Pam3CSK4 (InvivoGen) at 50 ng/ml for TLR1/2, LPS (Sigma) at 10 ng/ml for TLR4, and CpG-2216 (InvivoGen) at 5 ug/ml for TLR9. […] The resulting “RNA-Ig” stimulus was incubated at room temperature for 15-30 minutes before adding to cells. PBMC were incubated with the various TLR agonists for 20 hours at 37° C., 5% CO2. Cell culture supernatants were collected, and levels of various human cytokines were assessed as indicated by standard ELISA procedure according to the manufacturer's recommended protocol (BD Biosciences, Inc., San Diego, Calif.).

mouse TLR7 = target: T1, mouse TLR7 (Mus musculus, UniProt P58681); assay: Short-term in vivo (STIV) assay, plasma IL-6 after R848; conditions: plasma IL-6 after R848 s.c., BALB/c mice
T1 construct: tissue Jackson Labs; host or cells: live female BALB/c mice
T1 sequence (P58681 27-1050): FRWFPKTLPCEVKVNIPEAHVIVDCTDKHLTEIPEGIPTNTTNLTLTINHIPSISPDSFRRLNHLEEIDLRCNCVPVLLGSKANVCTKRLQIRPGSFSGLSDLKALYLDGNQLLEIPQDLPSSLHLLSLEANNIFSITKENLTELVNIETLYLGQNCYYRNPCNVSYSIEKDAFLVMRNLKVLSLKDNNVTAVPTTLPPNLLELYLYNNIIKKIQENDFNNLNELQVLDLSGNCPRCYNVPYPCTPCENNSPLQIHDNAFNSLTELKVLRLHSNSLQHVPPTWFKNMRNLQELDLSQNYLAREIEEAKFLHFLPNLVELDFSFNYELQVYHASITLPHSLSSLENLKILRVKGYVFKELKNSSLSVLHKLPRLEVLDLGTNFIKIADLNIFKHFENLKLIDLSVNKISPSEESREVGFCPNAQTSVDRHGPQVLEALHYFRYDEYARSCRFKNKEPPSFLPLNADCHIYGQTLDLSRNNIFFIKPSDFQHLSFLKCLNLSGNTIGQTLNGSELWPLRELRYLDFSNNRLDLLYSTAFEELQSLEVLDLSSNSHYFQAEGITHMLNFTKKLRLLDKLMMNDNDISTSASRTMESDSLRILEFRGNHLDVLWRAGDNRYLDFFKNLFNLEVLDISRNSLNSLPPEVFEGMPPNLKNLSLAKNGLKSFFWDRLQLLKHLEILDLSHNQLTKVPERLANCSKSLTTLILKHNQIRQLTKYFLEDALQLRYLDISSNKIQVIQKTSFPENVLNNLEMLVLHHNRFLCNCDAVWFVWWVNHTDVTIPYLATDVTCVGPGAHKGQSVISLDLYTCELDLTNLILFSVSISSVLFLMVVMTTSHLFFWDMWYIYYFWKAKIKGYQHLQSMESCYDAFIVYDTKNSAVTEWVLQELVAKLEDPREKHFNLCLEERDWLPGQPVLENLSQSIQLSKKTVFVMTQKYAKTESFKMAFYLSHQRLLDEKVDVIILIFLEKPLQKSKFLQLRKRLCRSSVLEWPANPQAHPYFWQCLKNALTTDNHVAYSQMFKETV
Procedure: To assess compound potency in vivo against mouse TLR7, a short-term in vivo (STIV) assay was utilized. Briefly, mice were orally dosed with compounds and at various time points afterwards were injected subcutaneously with agonist R848 to stimulate TLR7. The plasma IL-6 level following R848 stimulation was then measured by ELISA to assess compound potency and duration-of-action. […] Therefore, the activity of compounds in the STIV assay can be confidently attributed to their modulation of the TLR7 pathway.
Six to eight week old female BALB/c mice (Jackson Labs, Bar Harbor, Me.) were dosed by oral gavage in 200 ul volume with antagonist compounds formulated in 0.5% aqueous methyl-cellulose (Sigma, St. Louis, Mo.). At various time points afterwards, mice were injected subcutaneously (s.c.) in 100 ul volume with 15 ug R848 (Resiquimod; GLSynthesis, Worcester, Mass.) to stimulate TLR7. Blood plasma was collected by cardiac puncture, and levels of IL-6 at 1.5 hours after TLR7 stimulation were then assessed by standard ELISA procedure according to the manufacturer's recommended protocol (R&D Systems).

[1] = 13 hr after oral dose, 33 mg/kg
[2] = 13 hr after oral dose, 100 mg/kg
[3] = 13 hr after oral dose, 300 mg/kg
[4] = 24 hr after oral dose, 100 mg/kg
[5] = 24 hr after oral dose, 300 mg/kg

Compound | IC50 (Human TLR7/8) | also measured
C[C@H]1C[C@@H](N(C)C)CN(c2ccc(C#N)c3ncccc23)C1 [ER-889591] | 42 nM | –
CC1(C)C[C@@H](N)CN(c2ccc(C#N)c3ncccc23)C1 [ER-895386] | 17 nM | –
CC(=O)NC1CC(C)CN(c2ccc(C#N)c3ncccc23)C1 (stereo not drawn) [ER-896310] | 63 nM | –
CC1CC(O)CN(c2ccc(C#N)c3ncccc23)C1 (stereo not drawn) [ER-896464] | 6 nM | –
CN[C@@H]1C[C@H](C)CN(c2ccc(C#N)c3ncccc23)C1 [ER-897184] | 4 nM | –
CC1CC(NC(=O)CN)CN(c2ccc(C#N)c3ncccc23)C1 (stereo not drawn) [ER-897274] | 7 nM | –
COCCNC1CC(C)CN(c2ccc(C#N)c3ncccc23)C1 (stereo not drawn) [ER-897275] | 6 nM | –
CNCC(=O)NC1CC(C)CN(c2ccc(C#N)c3ncccc23)C1 (stereo not drawn) [ER-897608] | 5 nM | % Suppression vs. Vehicle (mouse TLR7; 6 h after oral dose, 33 mg/kg): 98%; % Suppression vs. Vehicle (mouse TLR7; [1]): 56%; % Suppression vs. Vehicle (mouse TLR7; [2]): 84%; % Suppression vs. Vehicle (mouse TLR7; [3]): 98%; % Suppression vs. Vehicle (mouse TLR7; 24 hr after oral dose, 33 mg/kg): 35%; % Suppression vs. Vehicle (mouse TLR7; [4]): 22%; % Suppression vs. Vehicle (mouse TLR7; [5]): 95%
CC1CC(NC(=O)CO)CN(c2ccc(C#N)c3ncccc23)C1 (stereo not drawn) [ER-897971] | 5 nM | –
CC1CC(NC(=O)C(O)C(C)C)CN(c2ccc(C#N)c3ncccc23)C1 (stereo not drawn) [ER-897972] | 17 nM | –
CC1CC(NC(=O)c2cccc(O)c2)CN(c2ccc(C#N)c3ncccc23)C1 (stereo not drawn) [ER-897973] | 11 nM | –
CC1CC(NC(=O)CS(C)(=O)=O)CN(c2ccc(C#N)c3ncccc23)C1 (stereo not drawn) [ER-897978] | 14 nM | –
CC1CC(NC(=O)C(N)C(C)C)CN(c2ccc(C#N)c3ncccc23)C1 (stereo not drawn) [ER-897987] | 12 nM | –
COCC(N)C(=O)NC1CC(C)CN(c2ccc(C#N)c3ncccc23)C1 (stereo not drawn) [ER-897990] | 3 nM | –
CC(C)CC(N)C(=O)NC1CC(C)CN(c2ccc(C#N)c3ncccc23)C1 (stereo not drawn) [ER-897998] | 2 nM | –
CC(C)CC(N)C(=O)NC1CC(C)CN(c2ccc(C#N)c3ncccc23)C1 (stereo not drawn) [ER-897999] | 2 nM | –
CNC(C(=O)NC1CC(C)CN(c2ccc(C#N)c3ncccc23)C1)C(C)C (stereo not drawn) [ER-898334] | 8 nM | –
CC1CC(NC(=O)C(N)c2ccccc2)CN(c2ccc(C#N)c3ncccc23)C1 (stereo not drawn) [ER-898350] | 20 nM | –
CC1CC(NC(=O)C(N)Cc2cccnc2)CN(c2ccc(C#N)c3ncccc23)C1 (stereo not drawn) [ER-898360] | 11 nM | –
CC1CC(NC(=O)C2(C)COC2)CN(c2ccc(C#N)c3ncccc23)C1 (stereo not drawn) [ER-899072] | 8 nM | % Suppression vs. Vehicle (mouse TLR7; 6 h after oral dose, 100 mg/kg): 94%; % Suppression vs. Vehicle (mouse TLR7; [1]): 34%; % Suppression vs. Vehicle (mouse TLR7; [2]): 72%; % Suppression vs. Vehicle (mouse TLR7; [3]): 100%; % Suppression vs. Vehicle (mouse TLR7; [4]): 0%; % Suppression vs. Vehicle (mouse TLR7; [5]): 78%
C[C@H]1C[C@@H](NC(=O)C2(N)COC2)CN(c2ccc(C#N)c3ncccc23)C1 [ER-899350] | 67 nM | –
CCOC(=O)CNC1CC(C)CN(c2ccc(C#N)c3ncccc23)C1 (stereo not drawn) [ER-899504] | 81 nM | –
CCOC(=O)CN(CC(=O)OCC)C1CC(C)CN(c2ccc(C#N)c3ncccc23)C1 (stereo not drawn) [ER-899505] | 127 nM | –
CC1CC(NC2COC2)CN(c2ccc(C#N)c3ncccc23)C1 (stereo not drawn) [ER-899541] | 15 nM | % Suppression vs. Vehicle (mouse TLR7; 6 h after oral dose, 100 mg/kg): 97%; % Suppression vs. Vehicle (mouse TLR7; [2]): 92%
CC1CC(NC2CCOC2)CN(c2ccc(C#N)c3ncccc23)C1 (stereo not drawn) [ER-899544] | 5 nM | % Suppression vs. Vehicle (mouse TLR7; 6 h after oral dose, 100 mg/kg): 97%; % Suppression vs. Vehicle (mouse TLR7; [2]): 94%
C[C@H]1C[C@@H](NCc2ncco2)CN(c2ccc(C#N)c3ncccc23)C1 [ER-899551] | 24 nM | –
C[C@H]1C[C@@H](NCc2cn(C)cn2)CN(c2ccc(C#N)c3ncccc23)C1 [ER-899552] | 104 nM | –
C[C@H]1C[C@@H](NS(=O)(=O)CCN)CN(c2ccc(C#N)c3ncccc23)C1 [ER-899669] | 9 nM | –
C[C@H]1C[C@@H](NS(=O)(=O)CCCN(C)C)CN(c2ccc(C#N)c3ncccc23)C1 [ER-899672] | 3 nM | % Suppression vs. Vehicle (mouse TLR7; 6 h after oral dose, 100 mg/kg): 89%; % Suppression vs. Vehicle (mouse TLR7; [2]): 83%
